Source: ChEMBL document CHEMBL2203227, “Macrocycles are great cycles: applications, opportunities, and challenges of synthetic macrocycles in drug discovery” (J Med Chem, 2011)

Assays:
[1] = Inhibition of HIV protease; parameters: species or system Human immunodeficiency virus
[2] = Selectivity ratio of IC50 for trypsin to IC50 for thrombin
[3] = Selectivity ratio of IC50 for tPa to IC50 for thrombin
Prothrombin = Prothrombin (Homo sapiens, UniProt P00734); test: Inhibition of thrombin
[4] = Inhibition of FTase
[5] = target: Sonic hedgehog protein (Mus musculus) (UniProt Q62226); test: Inhibition of sonic hedgehog pathway in mouse NIH-3T3 cells relative to control; type: cell-based; conditions: NIH3T3
Beta-secretase 1 = Beta-secretase 1 (Homo sapiens, UniProt P56817); test: Inhibition of BACE1
Chain of Beta-secretase 1 (P56817 whole entry): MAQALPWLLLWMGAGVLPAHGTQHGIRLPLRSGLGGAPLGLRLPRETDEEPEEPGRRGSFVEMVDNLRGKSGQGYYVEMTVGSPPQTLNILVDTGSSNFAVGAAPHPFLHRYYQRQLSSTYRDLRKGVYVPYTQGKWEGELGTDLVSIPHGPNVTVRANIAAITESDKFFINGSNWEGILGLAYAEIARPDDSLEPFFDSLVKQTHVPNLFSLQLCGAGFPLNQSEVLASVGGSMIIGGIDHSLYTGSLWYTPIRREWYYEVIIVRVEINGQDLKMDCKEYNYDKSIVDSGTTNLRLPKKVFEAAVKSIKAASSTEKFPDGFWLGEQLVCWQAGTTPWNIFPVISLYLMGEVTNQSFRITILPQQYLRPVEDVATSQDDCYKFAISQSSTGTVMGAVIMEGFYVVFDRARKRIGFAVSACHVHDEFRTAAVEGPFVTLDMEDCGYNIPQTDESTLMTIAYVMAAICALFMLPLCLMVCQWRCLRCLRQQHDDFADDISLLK

[6] = Inhibition of GGTase
[7] = Inhibition of HCV NS3 protease; parameters: species or system Hepacivirus hominis
Neprilysin = Neprilysin (Homo sapiens, UniProt P08473); test: Inhibition of neutral endopeptidase
Chain of Neprilysin (P08473 whole entry): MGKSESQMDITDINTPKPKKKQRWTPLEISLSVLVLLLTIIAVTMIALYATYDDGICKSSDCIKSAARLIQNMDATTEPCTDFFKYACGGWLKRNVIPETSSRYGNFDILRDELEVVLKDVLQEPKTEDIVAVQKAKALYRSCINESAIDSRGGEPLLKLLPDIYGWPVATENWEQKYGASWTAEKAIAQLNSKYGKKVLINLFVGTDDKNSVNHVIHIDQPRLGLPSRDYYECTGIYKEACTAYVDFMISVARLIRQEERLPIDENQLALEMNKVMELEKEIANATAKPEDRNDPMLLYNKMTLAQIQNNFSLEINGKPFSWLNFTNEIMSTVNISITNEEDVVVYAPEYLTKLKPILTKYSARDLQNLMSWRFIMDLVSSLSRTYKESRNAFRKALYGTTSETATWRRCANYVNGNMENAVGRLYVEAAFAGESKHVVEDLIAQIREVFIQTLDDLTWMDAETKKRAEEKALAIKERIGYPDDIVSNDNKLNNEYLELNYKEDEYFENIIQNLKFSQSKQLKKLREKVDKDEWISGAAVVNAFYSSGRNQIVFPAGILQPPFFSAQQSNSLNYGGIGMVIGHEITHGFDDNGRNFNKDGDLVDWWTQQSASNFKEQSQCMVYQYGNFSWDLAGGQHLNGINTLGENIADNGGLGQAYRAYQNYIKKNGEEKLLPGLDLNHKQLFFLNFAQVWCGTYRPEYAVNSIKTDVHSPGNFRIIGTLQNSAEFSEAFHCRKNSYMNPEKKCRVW

[8] = target: Angiotensin-converting enzyme (Homo sapiens, UniProt P12821); test: Inhibition of ACE
Chain of Angiotensin-converting enzyme (P12821 whole entry): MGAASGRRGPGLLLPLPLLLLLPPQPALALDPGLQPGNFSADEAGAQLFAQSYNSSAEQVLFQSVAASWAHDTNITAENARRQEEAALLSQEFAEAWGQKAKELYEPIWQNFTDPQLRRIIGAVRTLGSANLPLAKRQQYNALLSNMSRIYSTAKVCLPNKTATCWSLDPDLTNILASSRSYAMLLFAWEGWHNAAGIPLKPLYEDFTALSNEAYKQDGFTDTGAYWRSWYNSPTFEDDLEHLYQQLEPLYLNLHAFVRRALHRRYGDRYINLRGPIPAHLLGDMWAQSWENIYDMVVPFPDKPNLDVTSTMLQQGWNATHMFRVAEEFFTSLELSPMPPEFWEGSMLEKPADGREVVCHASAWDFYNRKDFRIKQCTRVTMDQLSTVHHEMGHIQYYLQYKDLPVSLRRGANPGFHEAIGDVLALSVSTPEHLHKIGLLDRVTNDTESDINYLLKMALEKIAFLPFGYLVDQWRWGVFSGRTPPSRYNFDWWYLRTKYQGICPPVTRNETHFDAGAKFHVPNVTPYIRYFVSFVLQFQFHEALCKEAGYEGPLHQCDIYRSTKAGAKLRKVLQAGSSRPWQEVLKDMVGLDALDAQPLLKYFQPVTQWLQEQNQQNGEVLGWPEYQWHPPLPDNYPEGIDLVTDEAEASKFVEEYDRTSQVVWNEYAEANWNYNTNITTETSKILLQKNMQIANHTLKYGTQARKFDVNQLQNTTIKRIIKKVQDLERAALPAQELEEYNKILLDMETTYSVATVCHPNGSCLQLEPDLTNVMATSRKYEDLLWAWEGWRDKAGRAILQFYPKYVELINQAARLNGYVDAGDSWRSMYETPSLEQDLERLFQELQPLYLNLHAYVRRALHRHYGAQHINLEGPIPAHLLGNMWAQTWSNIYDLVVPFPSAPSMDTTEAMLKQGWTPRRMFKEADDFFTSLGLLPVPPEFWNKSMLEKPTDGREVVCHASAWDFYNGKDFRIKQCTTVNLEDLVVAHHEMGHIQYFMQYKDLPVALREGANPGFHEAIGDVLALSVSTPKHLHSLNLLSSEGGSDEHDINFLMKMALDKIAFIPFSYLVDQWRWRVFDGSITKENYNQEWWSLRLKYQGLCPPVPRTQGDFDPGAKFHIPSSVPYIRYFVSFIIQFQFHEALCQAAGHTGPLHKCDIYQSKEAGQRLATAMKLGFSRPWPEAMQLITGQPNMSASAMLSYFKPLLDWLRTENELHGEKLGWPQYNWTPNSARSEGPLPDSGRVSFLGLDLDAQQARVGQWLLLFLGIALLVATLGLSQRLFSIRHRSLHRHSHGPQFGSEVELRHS

Renin = target: T1, Renin (Homo sapiens, UniProt P00797); test: Inhibition of renin
T1 sequence (P00797 whole entry): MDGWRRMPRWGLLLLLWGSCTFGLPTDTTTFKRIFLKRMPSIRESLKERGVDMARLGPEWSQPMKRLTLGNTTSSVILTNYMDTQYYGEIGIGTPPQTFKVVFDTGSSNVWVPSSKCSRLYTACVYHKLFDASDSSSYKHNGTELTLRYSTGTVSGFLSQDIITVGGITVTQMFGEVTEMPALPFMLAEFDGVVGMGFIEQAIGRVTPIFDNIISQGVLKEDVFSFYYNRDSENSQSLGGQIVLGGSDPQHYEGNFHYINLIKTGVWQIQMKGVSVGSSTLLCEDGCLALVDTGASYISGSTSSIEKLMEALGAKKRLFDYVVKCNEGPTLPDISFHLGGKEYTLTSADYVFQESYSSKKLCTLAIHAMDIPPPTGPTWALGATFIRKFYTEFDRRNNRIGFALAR

GTPase KRas = GTPase KRas (Homo sapiens, UniProt P01116); test: Inhibition of Ki-Ras
Chain of GTPase KRas (P01116 whole entry): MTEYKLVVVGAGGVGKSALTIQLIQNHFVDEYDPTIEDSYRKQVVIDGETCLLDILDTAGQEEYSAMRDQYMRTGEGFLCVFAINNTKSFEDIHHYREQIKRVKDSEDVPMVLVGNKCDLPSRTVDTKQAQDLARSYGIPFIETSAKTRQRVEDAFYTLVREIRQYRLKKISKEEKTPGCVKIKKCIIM

[9] = target: Ras-related protein Rap-1A (Homo sapiens, UniProt P62834); test: Inhibition of Rap1a
Chain of Ras-related protein Rap-1A (P62834 whole entry): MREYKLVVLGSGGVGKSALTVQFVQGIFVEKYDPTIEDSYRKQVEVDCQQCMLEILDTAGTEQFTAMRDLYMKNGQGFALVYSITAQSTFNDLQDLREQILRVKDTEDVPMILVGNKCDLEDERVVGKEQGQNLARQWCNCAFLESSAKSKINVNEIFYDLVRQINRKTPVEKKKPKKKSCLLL

[10] = target: DnaJ homolog subfamily A member 1 (Homo sapiens, UniProt P31689); test: Inhibition of HDJ2
Chain of DnaJ homolog subfamily A member 1 (P31689 whole entry): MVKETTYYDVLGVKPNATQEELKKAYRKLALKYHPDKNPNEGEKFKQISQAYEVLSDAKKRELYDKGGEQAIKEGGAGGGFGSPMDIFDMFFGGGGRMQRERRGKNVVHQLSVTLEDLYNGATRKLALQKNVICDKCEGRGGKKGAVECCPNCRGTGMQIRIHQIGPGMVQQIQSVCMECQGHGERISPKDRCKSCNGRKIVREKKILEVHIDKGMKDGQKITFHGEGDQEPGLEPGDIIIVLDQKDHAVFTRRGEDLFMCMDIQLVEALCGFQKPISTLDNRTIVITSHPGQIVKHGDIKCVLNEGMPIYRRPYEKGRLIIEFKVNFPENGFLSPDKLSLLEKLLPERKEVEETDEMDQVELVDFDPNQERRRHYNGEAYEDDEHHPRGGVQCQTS

[11] = target: Growth hormone secretagogue receptor type 1 (Homo sapiens, UniProt Q92847); test: Agonist activity at ghrelin receptor; type: functional
Chain of Growth hormone secretagogue receptor type 1 (Q92847 whole entry): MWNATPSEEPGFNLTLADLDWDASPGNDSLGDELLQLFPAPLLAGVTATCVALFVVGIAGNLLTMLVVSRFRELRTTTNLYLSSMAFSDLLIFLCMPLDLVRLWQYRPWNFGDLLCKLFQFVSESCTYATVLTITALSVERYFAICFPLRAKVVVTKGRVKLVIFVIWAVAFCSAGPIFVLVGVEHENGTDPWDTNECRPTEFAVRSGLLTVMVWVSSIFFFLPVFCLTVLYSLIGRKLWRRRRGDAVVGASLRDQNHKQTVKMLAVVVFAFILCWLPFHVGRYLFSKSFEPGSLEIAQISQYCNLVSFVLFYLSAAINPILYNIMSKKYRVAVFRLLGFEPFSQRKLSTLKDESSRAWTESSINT

[12] = Oral bioavailability in rat; type: ADME, organism-based; conditions: in vivo
[13] = Half life in dog; type: ADME, organism-based, Canis lupus familiaris; conditions: in vivo

Molecule `CC[C@H](C)[C@H](NC(=O)[C@@H]1CCCN1C[C@H](O)[C@@H]1Cc2ccc(cc2)OCCCC(=O)N[C@@H](CC(N)=O)C(=O)N1)C(=O)N[C@H](C(N)=O)C(C)C` has a Ki [1] of 12 nM.
For `O=C1Cn2c(Cl)cnc(c2=O)N[C@@H](Cc2ccccc2)CNCCCNCCOc2ccc(Cl)cc2CN1`, the Ratio IC50 [2] was 23000, the Ratio IC50 [3] was 7100 and the Ki (Prothrombin) was 0.09 nM.
In the case of `Cc1ncn(Cc2ccc(C#N)cc2)c1CN1CC(=O)N(c2cccc(Cl)c2)C[C@@H]1CCS(C)(=O)=O`, the IC50 [4] is reported as 475 nM.
`COc1ccc2c(c1)OCC/C=C/CCCCN(C[C@@H](O)[C@H](Cc1ccccc1)NC(=O)O[C@H]1CO[C@H]3OCC[C@H]31)S2(=O)=O` gave an IC50 [1] of 7 nM and a Ki [1] of 0.06 nM.
Molecule `O=C(C[C@@H]1C/C=C/CCC(=O)O[C@H](c2ccccc2)CNC1=O)NCc1ccc(Cl)cc1` has an Emax [5] of 91%.
`CC[C@H](C)[C@@H]1NC(=O)[C@@H](NC[C@H](O)[C@H](Cc2ccccc2)NC(=O)OC(C)(C)C)Cc2ccc(cc2)Oc2ccc(cc2)C[C@@H](C(=O)OC)NC1=O` showed a Ki [1] of 15 nM.
`CCCN(c1cc(COC(=O)[C@](C)(N)Cc2ccccc2)cc(C(=O)N[C@H](C)c2ccc(F)cc2)c1)S(C)(=O)=O` gave an IC50 (Beta-secretase 1) of 27 nM.
In the case of `COc1ccc2c(c1)OCC/C=C\CCCCN(C[C@@H](O)[C@H](Cc1ccccc1)NC(=O)O[C@H]1CO[C@H]3OCC[C@H]31)S2(=O)=O`, the IC50 [1] is reported as 4.6 nM and the Ki [1] is reported as 0.012 nM.
Molecule `N#Cc1ccc2cc1Oc1ccc3c(c1)[C@@H](CC3)N1CC[C@@H](NCc3cncn3C2)C1=O` has an IC50 [6] of 18000 nM and an IC50 [4] of under 1.6 nM.
In the case of `C=C[C@@H]1C[C@]1(NC(=O)[C@@H]1C[C@@H](Oc2cc(-c3ccccc3)nc3cc(OC)ccc23)CN1C(=O)[C@@H](NC(=O)[C@@H](NC(C)=O)C1CCCCC1)C(C)(C)C)C(=O)O`, the IC50 [7] is reported as 1 nM.
`O=C1N[C@H](C(=O)O)CCCCCc2ccccc2C[C@H]1CS` gave an IC50 (Neprilysin) of 3 nM and an IC50 [8] of 8000 nM.
`CC[C@H](C)[C@H](NC(=O)[C@@H](NC[C@@H]1COCCCCCN(C(=O)[C@H](Cc2ccccc2)NC(=O)OC(C)(C)C)[C@@H](C)C(=O)N1)C(C)C)C(=O)N[C@@H](Cc1cnc[nH]1)C(=O)OC` gave an IC50 (Renin) of 69000 nM.
Work on `N#Cc1ccc2cc1Oc1ccc(CCC3CCCCC3)c(c1)CN1CCN(CC1=O)Cc1cncn1C2` yielded an EC50 (GTPase KRas) of 1060 nM, an EC50 [9] of 140 nM and an EC50 [10] of 12 nM. It also gave an IC50 [6] of 1.7 nM and an IC50 [4] of 1.6 nM.
For `CC(C)CN(C[C@@H](O)[C@H](Cc1ccccc1)NC(=O)O[C@H]1CO[C@H]2OCC[C@H]21)S(=O)(=O)c1ccc(N)cc1`, the Ki [1] was 0.015 nM.
In the case of `C[C@@H]1CN[C@@H](C2CC2)C(=O)N(C)[C@H](C)C(=O)N[C@H](Cc2ccc(F)cc2)C(=O)NCCCc2ccccc2O1` [ULIMORELIN], the EC50 [11] is reported as 27 nM and the bioavailability [12] is reported as 16%.
`C[C@H]1NCc2cncn2Cc2ccc(C#N)c(c2)Oc2ccc3cccc(c3c2)NC1=O` showed an IC50 [6] of 313 nM and an IC50 [4] of 1.3 nM.
In the case of `CC(C)(C)C(=O)NCCOC(=O)N[C@@H](Cc1ccccc1)C(=O)N[C@H]1CCC(=O)NCCOC(=O)[C@H](O)[C@H](CC2CCCCC2)NC1=O`, the IC50 (Renin) is reported as 56 nM.
Work on `O=C1N[C@H](C(=O)N2C[C@H](O)C[C@H]2C(=O)O)CCCCCC[C@H]1CS` yielded an IC50 (Neprilysin) of 0.8 nM.
In the case of `NC(N)=NCCC[C@@H]1NC(=O)[C@@H]2CCCN2C(=O)[C@@H](NC=O)CNC(=O)/C=C/[C@H](Cc2ccc(O)cc2)NC(=O)[C@@H](Cc2ccccc2)NC(=O)C1=O` [CYCLOTHEONAMIDE A], the Ki (Prothrombin) is reported as 180 nM.
`C[C@H]1COC(=O)[C@@H](N)CC/C=C/C[C@@H](CC(=O)N(CCO)Cc2ccccc2)C(=O)N1` showed an Emax [5] of 30%.
`O=C1COc2ccc(Cl)cc2CNC(=O)[C@@H]2CCCN2C(=O)[C@@H](C2CCCCC2)NC(=O)CN1` showed a Ratio IC50 [2] of over 2000, a Ratio IC50 [3] of over 2000 and a Ki (Prothrombin) of 0.4 nM.
`CC[C@H](C)[C@H](NC(=O)[C@@H](NC[C@@H]1COCCCN(C(=O)[C@H](Cc2ccccc2)NC(=O)OC(C)(C)C)[C@@H](C)C(=O)N1)C(C)C)C(=O)N[C@@H](Cc1cnc[nH]1)C(=O)OC` showed an IC50 (Renin) of over 100000 nM.
Work on `CC(C)CCN(C[C@@H](O)[C@@H]1Cc2ccc(cc2)OCCCC(=O)N[C@@H](CC(N)=O)C(=O)N1)S(=O)(=O)c1ccccc1` yielded a Ki [1] of 0.6 nM.
In the case of `N#Cc1ccc2cc1Oc1ccc3cccc(c3c1)N1CCN(CC1=O)Cc1cncn1C2`, the EC50 (GTPase KRas) is reported as over 10000 nM, the EC50 [9] is reported as over 10000 nM and the EC50 [10] is reported as 2 nM. It also gave an IC50 [6] of 301 nM, an IC50 [4] of 0.1 nM and a half-life [13] of 1 h.
